Assay results as given in US20220204560A1, “NOVEL OLIGOPEPTIDE, AND PHARMACEUTICAL COMPOSITION FOR PREVENTING OR TREATING CANCER, COMPRISING THE SAME AS AN ACTIVE INGREDIENT” (L-BASE CO., LTD., priority 2019, published 2022).

How the values were obtained:
[1] = system: breast cancer cell line MDA-MB-231; test: Clonogenic assay, colony formation suppression, breast cancer cell line MDA-MB-231; type: cell-based; settings: MDA-MB-231, 100 μM or 500 μM, 14 days, compared to control group (FIG. 4)
[2] = system: breast cancer cell line HCC70; test: CellTiter-Glo Luminescent (CTG) assay, cell activity suppression, breast cancer cell line HCC70; type: cell-based; settings: HCC70, 100 μM or 500 μM, 72 hours, compared to control group (FIG. 5)

| Sequence | suppression of colony formation (clonogenic assay) [1] | suppression of the activity of cancer cells (amount of ATP, CTG assay) [2] |
| --- | --- | --- |
| AQTLTGKT | significant effects on suppression of the colony formation | significant effects on suppression of the colony formation and the activity of cancer cells |
| AQTITGKT (Oligopeptide #1 AQTITGKT) [oligopeptide of General Formula A-Q-T-X-T-G-K-T, X is isoleucine] | significant effects on suppression of the colony formation | significant effects on suppression of the colony formation and the activity of cancer cells |
